The values that follow come from patent US7615651B2, “Diaryl, dipyridinyl and aryl-pyridinyl derivatives and uses thereof” (Pfizer Inc., priority 2006, dated 2009).

Holding throughout (assay type): biochemical
For one assay, the target named is T1, opioid receptor delta (Homo sapiens, UniProt P41143).
T1 construct: expressed in transfected cells
Nature of the assay: GTPγ[35S] binding assay, antagonism of BW-373U86. On the procedure:
(§1) Membranes were prepared from cells as described (Bass et al, 1996). GTPγ[5S] binding assays were performed in a 96 well FlashPlate™ format in duplicate using […] GTPγ[^35S] and 5 μg membrane per well in assay buffer composed of 50 mM Tris HCl, pH 7.4, 5 mM MgCl2, 1 mM EDTA, 100 mM NaCl, 30 μM GDP, 0.1% bovine serum albumin and the following protease inhibitors: 100 μg/ml bacitracin, 100 μg/ml benzamidine, 5 μg/ml aprotinin, 5 μg/ml leupeptin. The assay mix was then incubated at 30° C. with increasing concentrations of antagonist (10^−10 M to 10^−5 M) for 10 minutes and challenged with the agonists BW-373U86 (1 nM), dynorphin-A (10 nM), […] (1 μM) for opioid receptors delta, kappa, and mu, respectively. The assays were performed at 30° C. for one hour. The FlashPlates were then centrifuged at 2000×g for 10 minutes. Stimulation of GTPγ[^35S] binding was then quantified using a Wallac Microbeta and Ki calculations were done using Prism™ by Graphpad.

In a further assay the target is T2, opioid receptor kappa (Homo sapiens, UniProt P41145).
T2 construct: expressed in transfected cells
T2 sequence (P41145 whole entry): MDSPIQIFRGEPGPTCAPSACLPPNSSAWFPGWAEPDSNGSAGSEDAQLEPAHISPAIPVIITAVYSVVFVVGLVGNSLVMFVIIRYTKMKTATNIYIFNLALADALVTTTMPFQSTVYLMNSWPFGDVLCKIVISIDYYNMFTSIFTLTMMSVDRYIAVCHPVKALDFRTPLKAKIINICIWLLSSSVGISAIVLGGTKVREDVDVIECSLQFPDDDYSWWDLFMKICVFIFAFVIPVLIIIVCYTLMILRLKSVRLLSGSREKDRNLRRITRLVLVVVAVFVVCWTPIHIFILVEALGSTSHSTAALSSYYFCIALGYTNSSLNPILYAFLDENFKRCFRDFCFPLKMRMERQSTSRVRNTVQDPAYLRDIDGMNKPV
Nature of the assay: GTPγ[35S] binding assay, antagonism of dynorphin-A. On the procedure: as §1

For another assay, the target named is T3, opioid receptor mu (Homo sapiens, UniProt P35372).
T3 construct: expressed in transfected cells
T3 sequence (P35372 whole entry): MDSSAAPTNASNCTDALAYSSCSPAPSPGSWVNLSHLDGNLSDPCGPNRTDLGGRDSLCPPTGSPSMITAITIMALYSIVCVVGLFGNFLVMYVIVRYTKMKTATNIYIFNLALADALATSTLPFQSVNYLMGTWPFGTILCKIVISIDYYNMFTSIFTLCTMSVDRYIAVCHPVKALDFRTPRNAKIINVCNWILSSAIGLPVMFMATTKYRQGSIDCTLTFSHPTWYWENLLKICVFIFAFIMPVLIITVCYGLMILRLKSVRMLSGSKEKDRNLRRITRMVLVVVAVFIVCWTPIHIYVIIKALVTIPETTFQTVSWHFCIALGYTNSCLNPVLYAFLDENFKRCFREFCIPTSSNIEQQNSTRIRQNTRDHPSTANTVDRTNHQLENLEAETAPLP
The assay is described as follows: GTPγ[35S] binding assay, antagonism of endorphin. On the procedure:
as §1

[1] abbreviates: average Ki, antagonism of BW-373U86 (1 nM) stimulated GTPγ[35S] binding, delta opioid receptor membranes, read-out: Delta functional (GTPγ[35S] binding Ki).
[2] abbreviates: average Ki, antagonism of dynorphin-A (10 nM) stimulated GTPγ[35S] binding, kappa opioid receptor membranes, read-out: Kappa functional (GTPγ[35S] binding Ki).
The mark [3] stands for this setting: average Ki, antagonism of endorphin (1 μM) stimulated GTPγ[35S] binding, mu opioid receptor membranes, read-out: Mu functional (GTPγ[35S] binding Ki).
The mark [4] stands for this setting: read-out: Delta functional Ki (GTPγ[35S] binding).
The mark [5] stands for this setting: read-out: Kappa functional Ki (GTPγ[35S] binding).
[6] abbreviates: read-out: Mu functional Ki (GTPγ[35S] binding).
Where [7] appears, read: average Ki, antagonism of dynorphin-A (10 nM) at kappa opioid receptor membranes, read-out: Kappa functional Ki (GTPγ[35S] binding).
The mark [8] stands for this setting: average Ki, antagonism of endorphin (1 μM) at mu opioid receptor membranes, read-out: Mu functional Ki (GTPγ[35S] binding).
Where [9] appears, read: read-out: Delta functional (GTPγ[35S] binding Ki).
Setting [10] is: read-out: Kappa functional (GTPγ[35S] binding Ki).
[11] abbreviates: read-out: Mu functional (GTPγ[35S] binding Ki).
Where [12] appears, read: average Ki, antagonism of dynorphin-A (10 nM) at kappa opioid receptor, read-out: Kappa functional Ki (GTPγ[35S] binding).
The mark [13] stands for this setting: average Ki, antagonism of endorphin (1 μM) at mu opioid receptor, read-out: Mu functional Ki (GTPγ[35S] binding).

Read-outs that look alike come from different tables or passages of the source.

T1 sequence (P41143 whole entry): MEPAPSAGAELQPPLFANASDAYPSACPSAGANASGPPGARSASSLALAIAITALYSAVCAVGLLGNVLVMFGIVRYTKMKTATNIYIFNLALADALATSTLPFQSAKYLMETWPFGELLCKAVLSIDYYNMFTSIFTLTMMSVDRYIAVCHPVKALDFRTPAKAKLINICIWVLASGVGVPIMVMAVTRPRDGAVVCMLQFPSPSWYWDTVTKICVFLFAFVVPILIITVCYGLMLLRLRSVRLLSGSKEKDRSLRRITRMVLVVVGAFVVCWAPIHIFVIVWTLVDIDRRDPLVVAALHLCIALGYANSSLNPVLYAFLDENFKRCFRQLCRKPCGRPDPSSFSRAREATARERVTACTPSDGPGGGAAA

On to `Cc1cc(CNCCC(C)C)ccc1-c1ncc(C(N)=O)cc1C` [1D-07], for which the Ki at opioid receptor delta (setting [1]) amounted to 9.3 nM; on opioid receptor kappa (setting [2]) it was 8.99 nM; on opioid receptor mu (setting [3]), 1.43 nM.

With `CCc1cc(C(N)=O)ccc1-c1c(C)cc(CNCCC2CCOCC2)cc1C` [4B-76], the Ki is 0.501 nM at opioid receptor delta (setting [4]), 8.11 nM on opioid receptor kappa (setting [5]) and 1.02 nM on opioid receptor mu (setting [6]).

As for `Cc1ncsc1CCNCc1ccc(-c2cccc(C(N)=O)c2)c(Cl)c1` [6A-08], the Ki was 4.92 nM on opioid receptor delta (setting [4]), 32.1 nM at opioid receptor kappa (setting [5]) and 8.62 nM at opioid receptor mu (setting [6]).

Consider `CC(C)CCNCc1cc(F)c(-c2cccc(-c3ncn[nH]3)c2)c(F)c1` [7A-06], for which the Ki on opioid receptor kappa (setting [7]) stood at 4.61 nM; at opioid receptor mu (setting [8]), 2.06 nM.

Regarding `Cc1cc(C(N)=O)ccc1-c1ccc(CNC2Cc3ccccc3C2)c(F)c1` [1B-10], the values for the Ki on opioid receptor delta (setting [9]), on opioid receptor kappa (setting [10]) and at opioid receptor mu (setting [11]) were 0.0326 nM, 0.256 nM and 0.0717 nM, respectively.

Turning to `Cc1cc(C(N)=O)ccc1-c1ccc(CNCCC(C)C)c(OCc2ccccc2)c1` [4B-85], the Ki at opioid receptor delta (setting [4]) was 0.588 nM; on opioid receptor kappa (setting [5]), 5.48 nM; at opioid receptor mu (setting [6]), 2.48 nM.

As for `NC(=O)c1cccc(-c2cc(F)c(CNC3Cc4ccccc4C3)c(F)c2)c1` [1A-10], the Ki on opioid receptor delta (setting [9]) is 5.5 nM; at opioid receptor kappa (setting [10]) it was 14.4 nM; on opioid receptor mu (setting [11]), 0.966 nM.

`CCc1cc(C(N)=O)ccc1-c1ccc(CNC2Cc3ccccc3C2)cc1C` [4B-77]: the Ki on opioid receptor delta (setting [4]) was found to be 0.271 nM; at opioid receptor kappa (setting [5]) it was 0.949 nM; on opioid receptor mu (setting [6]), 0.114 nM.

Regarding `CC(C)CCNCc1ccc(-c2ccc(C(N)=O)cc2O)cc1` [4B-47], the Ki on opioid receptor delta (setting [4]) came out at 543 nM; at opioid receptor kappa (setting [5]), 80.6 nM; at opioid receptor mu (setting [6]), 549 nM.

On to `Cc1cc(C(N)=O)ccc1-c1ccc(CNCCC(C)C)nc1` [1D-01], for which the results for the Ki on opioid receptor delta (setting [1]), on opioid receptor kappa (setting [2]) and at opioid receptor mu (setting [3]) were 11.7 nM, 17.1 nM and 20.5 nM, respectively.

On to `Cc1cc(C(N)=O)ccc1-c1ccc(CNC2Cc3ccccc3C2)c(O)c1` [4B-88], for which the results for the Ki on opioid receptor delta (setting [4]), at opioid receptor kappa (setting [5]) and at opioid receptor mu (setting [6]) were 0.591 nM, 0.78 nM and 0.134 nM, respectively.

Take `NC(=O)c1cc(-c2ccc(CNC3Cc4ccccc4C3)cc2)ccc1F` [4A-03]: the Ki at opioid receptor delta (setting [9]) was 51.9 nM; on opioid receptor kappa (setting [10]), 60.2 nM; at opioid receptor mu (setting [11]) it was 25.2 nM.

As to `Cc1cc(C(N)=O)ccc1-c1cc(F)c(CNCC2CCOCC2)c(F)c1` [4B-59], the Ki turned out to be 19.1 nM at opioid receptor delta (setting [4]), 9.47 nM on opioid receptor kappa (setting [5]) and 33.3 nM on opioid receptor mu (setting [6]).

Regarding `CC(C)CCNCc1cc(F)c(-c2cccc(C(N)=O)c2)cc1F` [1A-08], the Ki came to 3160 nM at opioid receptor delta (setting [1]), 87.3 nM at opioid receptor kappa (setting [2]) and 70.9 nM at opioid receptor mu (setting [3]).

As for `NC(=O)c1cccc(-c2ccc(CNCC3CCCCO3)cc2Cl)c1` (stereo not shown) [4A-12], the Ki at opioid receptor delta (setting [9]) amounted to 22.7 nM; at opioid receptor kappa (setting [10]), 18.2 nM; on opioid receptor mu (setting [11]) it was 15 nM.

Turning to `CC(C)CCNCc1ccc(-c2cccc(C(N)=O)c2)c(Cl)c1` [4A-05], the values for the Ki on opioid receptor kappa (setting [2]) and on opioid receptor mu (setting [3]) were 9.84 nM and 0.95 nM, respectively.

As to `Cc1cc(CNCCC(C)C)ccc1-c1cccc(C(N)=O)c1` [1A-01], the Ki was 11.5 nM on opioid receptor kappa (setting [2]) and 1.49 nM on opioid receptor mu (setting [3]).

Regarding `Cc1cc(NS(C)(=O)=O)ccc1-c1ccc(CNCCC(C)C)cc1` [8B-01], the Ki on opioid receptor kappa (setting [12]) turned out to be 1450 nM; on opioid receptor mu (setting [13]), 715 nM.

For the molecule `CC(C)CC[NH2+]Cc1ccc(-c2cccc(C(N)=O)c2)c(F)c1` [E5-01, (3′-Carbamoyl-2-fluoro-biphenyl-4-ylmethyl)-(3-methyl-butyl)-ammonium chloride], the Ki amounted to 23 nM at opioid receptor kappa (setting [5]) and 14 nM at opioid receptor mu (setting [6]).

As for `Cc1cc(CNCCC(C)C)ccc1-c1cccc(-c2ncn[nH]2)c1` [7A-05], the figures for the Ki on opioid receptor kappa (setting [7]) and at opioid receptor mu (setting [8]) were 2.12 nM and 0.505 nM, respectively.

For the molecule `CC(C)CCNCc1ccc(-c2cccc(NS(C)(=O)=O)c2)cc1` [8A-01], the Ki was 45.9 nM at opioid receptor kappa (setting [12]) and 14.6 nM on opioid receptor mu (setting [13]).

On to `COc1cc(C(N)=O)ccc1-c1ccc(CNCCC(C)C)cc1` [4B-46], for which the Ki stood at 14.7 nM on opioid receptor kappa (setting [5]) and 121 nM at opioid receptor mu (setting [6]).
